Patent US20260374766A1, “METHODS FOR TREATING CANCER” (Antares Therapeutics, Inc., priority 2022, published 2026)
Where two headings read alike, the source gives them in different places.

Legend:
[1] = molecular target: p53 Y220C (Homo sapiens, UniProt P04637, Y220C); test: Luciferase Reporter Assay (Luc), p53 response element, NClH1299 cells with inducible p53 Y220C; type: cell-based; details: 6 hour; for AC50: read-out: Luc P53 Y220C AC50
Protocol: Luciferase Reporter Assay Protocol
The cells were then used for p53 reporter assay. 5,000 cells were seeded in each well of 384 plate and cultured in 0.5 ug/mL doxycycline (D3072; Sigma) containing medium for 24 hours before compound treatment. After 6 hour of compound treatment, equal volume of One-Glo reagent (E6110; Promega) was added to each well and the plate was incubated for 5 minutes with shaking at room temperature. The luciferase activity was immediately measured with PheraStar microplate reader.

[2] = system: H1299 p53 R273H; test: Cell Proliferation Assay (CellTiter-Glo, CTG), H1299 p53 R273H (NClH1299-inducible p53 R273H); type: cell-based; details: Homo sapiens, NCI-H1299, 120 h, NClH1299-inducible p53 R273H cells, 5 days
Protocol: (§1) Inducible p53 Y220C and R273H constructs (Tet-One inducible expression system; Takara) were stably expressed in NClH1299 cells by lentiviral transduction. NUGC3, A549, BxPC3, T3M4, HuH7, HCC2935, MFE296, NClH1299, NClH1299-inducible p53 Y220C, and NClH1299-inducible p53 R273H cell lines were used for cell proliferation assay. 250-500 cells were seeded in each well of 384 plate and then compounds were dispensed into each well using Echo or Tecan. After 5 days of incubation, equal volume of CellTiter-Glo reagent (G7570; Promega) was added into each well and the plate was incubated at room temperature for 10 minutes with shaking. The luminescent signal was measured by PheraStar microplate reader and IC50 was calculated.

[3] = system: NUGC3 p53 Y220C; test: Cell Proliferation Assay (CellTiter-Glo, CTG), NUGC3 p53 Y220C; type: cell-based; details: Homo sapiens, NUGC-3, 120 h, NUGC3 cells, 5 days
Protocol: as §1

[4] = system: H1299 p53 Y220C; test: Cell Proliferation Assay (CellTiter-Glo, CTG), H1299 p53 Y220C (NClH1299-inducible p53 Y220C); type: cell-based; details: Homo sapiens, NCI-H1299, 120 h, NClH1299-inducible p53 Y220C cells, 5 days
Protocol: as §1

[5] = molecular target: T1, p53 Y220C mutant protein (amino acid residues 94-293) (Homo sapiens, UniProt P04637, Y220C); test: Surface Plasmon Resonance (SPR) assay, Kd_kinetic; type: binding; details: SPR; p53 Y220C; read-out: SPR P53 Y220C KD kinetic
T1 construct: p53 Y220C mutant protein (amino acid residues 94-293)
T1 sequence (P04637 94-293, stated change not applied): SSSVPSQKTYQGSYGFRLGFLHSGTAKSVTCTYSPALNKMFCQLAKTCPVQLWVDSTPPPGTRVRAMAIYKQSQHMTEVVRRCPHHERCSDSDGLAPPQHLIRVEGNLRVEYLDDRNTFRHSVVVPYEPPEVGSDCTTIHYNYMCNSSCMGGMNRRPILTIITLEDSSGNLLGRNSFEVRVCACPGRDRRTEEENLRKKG
Protocol: Surface Plasmon Resonance (SPR) Assay Protocol
SPR experiments were performed on a Biacore 8K instrument. […] The running buffer contained 50 mM Tris, pH 7.5, 100 mM NaCl, 1 mM DTT, 0.01% Brij35, 0.05% Tween-20 and 1% DMSO. The assay temperature was maintained at 16 or 20 °C and data were fit into the 1:1 binding model using the Biacore Insight Evaluation software.

[6] = luciferase reporter, NClH1299 inducible p53 Y220C
[7] = NClH1299 cells with inducible p53 Y220C

Compound	Emax [1, 6] [%]	IC50 ([2]; CellTiter-Glo) [nM]	IC50 ([4]; CellTiter-Glo) [nM]	AC50 [1, 6] [nM]	AC50 [1, 7] [nM]	Emax ([1]; NClH1299 cells with inducible p53 Y220C, 10 uM tool compound as positive control) [%]	IC50 [2] [nM]	IC50 [4] [nM]	Kd [5] [nM]	IC50 ([3]; CellTiter-Glo) [nM]	IC50 [3] [nM]
COc1ccc(C(=O)NC[C@H](O)CO)cc1NCC#Cc1cc2c(N[C@@H]3CCN(C)C[C@@H]3F)cccn2c1SC(F)(F)F [Example 425]	> 90	≥ 10000	< 750	< 750						< 750	
COc1cc(P(C)(C)=O)ncc1NCC#Cc1cc2c(N[C@@H]3CCN(C)C[C@@H]3F)cccn2c1SC(F)(F)F [Example 439, 2-(3-{[6-(dimethylphosphoryl)-4-methoxypyridin-3-yl]amino}prop-1-yn-1-yl)-N-[(3S,4R)-3-fluoro-1-methylpiperidin-4-yl]-3-[(trifluoromethyl)sulfanyl]indolizin-8-amine]	> 90	≥ 10000	< 750	< 750						< 750	
CN1CC[C@@H](Nc2cccn3c(SC(F)(F)F)c(C#CCNc4cc(C(=O)NCC(C)(C)O)ccc4OC4COC4)cc23)[C@@H](F)C1 [Example 459, 3-{[3-(8-{[(3S,4R)-3-fluoro-1-methylpiperidin-4-yl]amino}-3-[(trifluoromethyl)sulfanyl]indolizin-2-yl)prop-2-yn-1-yl]amino}-N-(2-hydroxy-2-methylpropyl)-4-(oxetan-3-yloxy)benzamide]					< 750	> 90	≥ 10000	< 750			< 750
CNC(=O)c1ccc(OC)c(NCC#Cc2cc3c(N[C@@H]4CCN(C)C[C@@H]4F)cccn3c2CC(F)(F)F)c1 [Example 509]					< 750			< 750	< 10		< 750
CNC(=O)c1ccc(NCC#Cc2cc3c(N[C@@H]4CCN(C)C[C@@H]4F)cccn3c2CC(F)(F)F)c(OC)c1 [Example 510]					< 750			< 750	< 10		< 750

Further lines, with some results ahead:

Emax [1, 6] [%]	IC50 ([2]; CellTiter-Glo) [nM]	IC50 ([4]; CellTiter-Glo) [nM]	AC50 [1, 6] [nM]	AC50 [1, 7] [nM]	Emax ([1]; NClH1299 cells with inducible p53 Y220C, 10 uM tool compound as positive control) [%]	IC50 [2] [nM]	IC50 [4] [nM]	Kd [5] [nM]	Compound	IC50 ([3]; CellTiter-Glo) [nM]	IC50 [3] [nM]
70 to 80	≥ 10000	> 3000							CNC(=O)c1ccc(NCC#Cc2nc3c(N[C@H]4C[C@@H]5COC[C@@H](N5)[C@H]4F)cccn3c2SC(F)(F)F)c(OC)c1 [Example 279]	> 3000	
	≥ 10000								CNC(=O)c1ccc(NCC#Cc2nc3c(N[C@H]4C[C@H]5COC[C@H](N5)[C@H]4F)cccn3c2SC(F)(F)F)c(OC)c1 [Example 282]	< 750	
< 70	5000 to 8000	> 3000	> 3000						CNS(=O)(=O)c1ccc(NCC#Cc2cc3c(N[C@@H]4CCN(C)C[C@@H]4F)cccn3c2SC(F)(F)F)c(OC)c1 [Example 360]	> 3000	
70 to 80	8000 to 10000	> 3000	> 3000						COc1cc(S(N)(=O)=O)ccc1NCC#Cc1cc2c(N[C@@H]3CCN(C)C[C@@H]3F)cccn2c1SC(F)(F)F [Example 362]	> 3000	
70 to 80	≥ 10000	< 750							CNC(=O)c1ccc(NCC#Cc2nn3c(N[C@@H]4CCN(C)C[C@@H]4F)cccc3c2SC(F)F)c(OC)c1 [Example 366]	< 750	
> 90	8000 to 10000	< 750	< 750						CNC(=O)c1ccc(OC)c(NCC#Cc2cc3c(N[C@@H]4CCN(C[C@@H](C)O)C[C@@H]4F)nccn3c2SC(F)(F)F)c1 [Example 401]	< 750	
